Assay results: the kinase profiling compilation of Christmann-Franck et al. (2016)
Values joined by “and” are separate entries in the source; they are usually repeats but may differ in a detail not shown here. Equal entries are not always repeated.

Legend:
Experiment in all cases: radiometric filter-binding kinase assay, Kinase HotSpot
Conditions in all cases: compound 0.5 µM; ATP 10 µM
ADRBK1 (human) = ADRBK1 (human) (UniProt P25098)
AKT2 (human) = AKT2 (human) (UniProt P31751)
AURKA (human) = AURKA (human) (UniProt O14965)
CAMK1D (human) = CAMK1D (human) (UniProt Q8IU85)
CAMK4 (human) = CAMK4 (human) (UniProt Q16566)
CAMKK1 (human) = CAMKK1 (human) (UniProt Q8N5S9)
CDK4 CCND3 (human) = CDK4 CCND3 (human) (UniProt P30281+P11802)
CSF1R (human) = CSF1R (human) (UniProt P07333)
DYRK4 (human) = DYRK4 (human) (UniProt Q9NR20)
EPHA3 (human) = EPHA3 (human) (UniProt P29320)
EPHA5 (human) = EPHA5 (human) (UniProt P54756)
EPHB1 (human) = EPHB1 (human) (UniProt P54762)
FRK (human) = FRK (human) (UniProt P42685)
FYN (human) = FYN (human) (UniProt P06241)
GRK5 (human) = GRK5 (human) (UniProt P34947)
HCK (human) = HCK (human) (UniProt P08631)
HIPK1 (human) = HIPK1 (human) (UniProt Q86Z02)
HIPK2 (human) = HIPK2 (human) (UniProt Q9H2X6)
IKBKB (human) = IKBKB (human) (UniProt O14920)
MAPK13 (human) = MAPK13 (human) (UniProt O15264)
MARK4 (human) = MARK4 (human) (UniProt Q96L34)
MATK (human) = MATK (human) (UniProt P42679)
MELK (human) = MELK (human) (UniProt Q14680)
MYLK (human) = MYLK (human) (UniProt Q15746)
NEK11 (human) = NEK11 (human) (UniProt Q8NG66)
NEK3 (human) = NEK3 (human) (UniProt P51956)
NUAK2 (human) = NUAK2 (human) (UniProt Q9H093)
OXSR1 (human) = OXSR1 (human) (UniProt O95747)
PDGFRB (human) = PDGFRB (human) (UniProt P09619)
PIM3 (human) = PIM3 (human) (UniProt Q86V86)
PKN2 (human) = PKN2 (human) (UniProt Q16513)
PRKCB1 (human) = PRKCB1 (human) (UniProt P05771)
PTK2 (human) = PTK2 (human) (UniProt Q05397)
RPS6KB1 (human) = RPS6KB1 (human) (UniProt P23443)
SLK (human) = SLK (human) (UniProt Q9H2G2)
STK16 (human) = STK16 (human) (UniProt O75716)
TBK1 (human) = TBK1 (human) (UniProt Q9UHD2)
TEC (human) = TEC (human) (UniProt P42680)
TGFBR2 (human) = TGFBR2 (human) (UniProt P37173)
TNK2 (human) = TNK2 (human) (UniProt Q07912)
TTK (human) = TTK (human) (UniProt P33981)
LYN (human) = LYN (human) (UniProt P07948)

CAMKK1 (human), sequence (Q8N5S9 whole entry, looked up): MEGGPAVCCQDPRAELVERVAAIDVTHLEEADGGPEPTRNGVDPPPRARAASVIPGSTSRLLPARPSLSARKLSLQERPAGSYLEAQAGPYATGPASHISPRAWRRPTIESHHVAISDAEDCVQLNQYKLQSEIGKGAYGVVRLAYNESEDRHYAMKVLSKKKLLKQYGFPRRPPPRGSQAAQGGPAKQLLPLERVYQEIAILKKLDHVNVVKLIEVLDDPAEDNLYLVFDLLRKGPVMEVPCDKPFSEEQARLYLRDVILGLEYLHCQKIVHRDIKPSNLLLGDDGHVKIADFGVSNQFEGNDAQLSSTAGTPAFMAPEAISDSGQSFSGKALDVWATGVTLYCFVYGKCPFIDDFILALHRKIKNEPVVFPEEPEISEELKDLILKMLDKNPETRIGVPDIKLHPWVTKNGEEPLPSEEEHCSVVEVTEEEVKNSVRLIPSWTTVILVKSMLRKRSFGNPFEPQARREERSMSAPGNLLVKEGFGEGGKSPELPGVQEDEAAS
DYRK4 (human), sequence (Q9NR20 whole entry, looked up): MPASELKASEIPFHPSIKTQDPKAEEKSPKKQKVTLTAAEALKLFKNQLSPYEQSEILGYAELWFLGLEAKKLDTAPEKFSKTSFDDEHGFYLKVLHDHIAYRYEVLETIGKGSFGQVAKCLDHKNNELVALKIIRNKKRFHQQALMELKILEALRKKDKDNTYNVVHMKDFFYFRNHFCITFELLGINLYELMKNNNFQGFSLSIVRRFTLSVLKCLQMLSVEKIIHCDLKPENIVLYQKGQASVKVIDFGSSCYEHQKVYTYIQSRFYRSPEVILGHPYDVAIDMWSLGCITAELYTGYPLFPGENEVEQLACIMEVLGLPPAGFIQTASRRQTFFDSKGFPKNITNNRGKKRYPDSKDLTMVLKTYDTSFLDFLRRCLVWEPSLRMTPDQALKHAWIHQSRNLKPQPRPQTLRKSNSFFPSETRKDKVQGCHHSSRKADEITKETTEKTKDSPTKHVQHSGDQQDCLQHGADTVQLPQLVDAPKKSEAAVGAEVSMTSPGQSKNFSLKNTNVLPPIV
EPHA5 (human), sequence (P54756 whole entry, looked up): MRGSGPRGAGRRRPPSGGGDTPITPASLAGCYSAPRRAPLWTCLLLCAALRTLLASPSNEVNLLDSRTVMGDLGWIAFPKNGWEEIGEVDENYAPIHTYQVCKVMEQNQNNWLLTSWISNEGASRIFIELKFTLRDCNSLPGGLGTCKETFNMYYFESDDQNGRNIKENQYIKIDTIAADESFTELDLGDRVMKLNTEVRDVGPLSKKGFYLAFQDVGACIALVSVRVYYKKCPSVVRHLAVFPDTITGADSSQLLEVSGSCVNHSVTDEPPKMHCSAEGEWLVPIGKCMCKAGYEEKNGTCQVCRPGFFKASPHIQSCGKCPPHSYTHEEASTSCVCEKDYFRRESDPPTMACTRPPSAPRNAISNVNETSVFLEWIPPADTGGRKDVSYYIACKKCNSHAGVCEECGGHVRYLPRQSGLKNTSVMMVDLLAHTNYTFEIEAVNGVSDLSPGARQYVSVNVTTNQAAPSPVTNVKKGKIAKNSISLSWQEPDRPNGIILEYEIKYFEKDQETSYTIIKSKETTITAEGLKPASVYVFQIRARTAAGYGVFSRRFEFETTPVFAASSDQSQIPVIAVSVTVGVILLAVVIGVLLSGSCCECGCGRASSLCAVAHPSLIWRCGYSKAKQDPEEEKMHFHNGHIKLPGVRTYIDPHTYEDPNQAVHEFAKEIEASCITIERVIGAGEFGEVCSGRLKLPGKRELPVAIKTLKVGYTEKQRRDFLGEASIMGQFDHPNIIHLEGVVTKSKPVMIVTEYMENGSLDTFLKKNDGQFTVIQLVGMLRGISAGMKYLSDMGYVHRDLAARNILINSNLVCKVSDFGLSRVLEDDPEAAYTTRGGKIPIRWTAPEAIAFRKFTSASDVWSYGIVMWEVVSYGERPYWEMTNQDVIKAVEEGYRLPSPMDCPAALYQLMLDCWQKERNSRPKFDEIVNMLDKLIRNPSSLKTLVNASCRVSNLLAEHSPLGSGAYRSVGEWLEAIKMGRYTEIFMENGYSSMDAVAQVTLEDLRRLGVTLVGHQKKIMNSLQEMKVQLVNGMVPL
PDGFRB (human), sequence (P09619 whole entry, looked up): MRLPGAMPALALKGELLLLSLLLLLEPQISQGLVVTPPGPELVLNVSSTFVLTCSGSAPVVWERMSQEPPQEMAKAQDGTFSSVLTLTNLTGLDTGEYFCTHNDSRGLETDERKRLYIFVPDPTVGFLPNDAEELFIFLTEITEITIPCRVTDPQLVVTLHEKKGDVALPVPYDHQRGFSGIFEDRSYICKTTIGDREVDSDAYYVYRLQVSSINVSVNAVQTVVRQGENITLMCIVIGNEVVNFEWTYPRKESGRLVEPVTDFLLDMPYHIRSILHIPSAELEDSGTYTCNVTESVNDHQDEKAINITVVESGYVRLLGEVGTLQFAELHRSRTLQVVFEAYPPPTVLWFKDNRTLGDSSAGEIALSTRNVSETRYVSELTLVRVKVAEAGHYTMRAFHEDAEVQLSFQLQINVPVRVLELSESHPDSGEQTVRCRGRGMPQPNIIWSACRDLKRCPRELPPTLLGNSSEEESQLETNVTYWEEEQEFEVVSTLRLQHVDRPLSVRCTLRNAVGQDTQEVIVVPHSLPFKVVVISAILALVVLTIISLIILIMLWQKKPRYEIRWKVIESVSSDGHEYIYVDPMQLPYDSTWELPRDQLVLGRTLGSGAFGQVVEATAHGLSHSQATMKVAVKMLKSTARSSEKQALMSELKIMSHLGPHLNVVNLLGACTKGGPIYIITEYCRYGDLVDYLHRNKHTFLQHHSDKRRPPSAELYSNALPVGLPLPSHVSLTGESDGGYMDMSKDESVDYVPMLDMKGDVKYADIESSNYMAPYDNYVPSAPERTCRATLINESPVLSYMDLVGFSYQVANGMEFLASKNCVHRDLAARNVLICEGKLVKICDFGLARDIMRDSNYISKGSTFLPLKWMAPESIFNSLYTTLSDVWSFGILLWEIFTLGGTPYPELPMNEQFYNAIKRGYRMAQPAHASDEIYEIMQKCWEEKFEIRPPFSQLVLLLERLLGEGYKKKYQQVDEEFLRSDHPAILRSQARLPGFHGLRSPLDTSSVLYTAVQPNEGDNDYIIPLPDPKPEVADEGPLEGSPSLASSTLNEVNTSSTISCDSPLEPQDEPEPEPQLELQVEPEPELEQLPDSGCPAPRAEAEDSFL
RPS6KB1 (human), sequence (P23443 whole entry, looked up): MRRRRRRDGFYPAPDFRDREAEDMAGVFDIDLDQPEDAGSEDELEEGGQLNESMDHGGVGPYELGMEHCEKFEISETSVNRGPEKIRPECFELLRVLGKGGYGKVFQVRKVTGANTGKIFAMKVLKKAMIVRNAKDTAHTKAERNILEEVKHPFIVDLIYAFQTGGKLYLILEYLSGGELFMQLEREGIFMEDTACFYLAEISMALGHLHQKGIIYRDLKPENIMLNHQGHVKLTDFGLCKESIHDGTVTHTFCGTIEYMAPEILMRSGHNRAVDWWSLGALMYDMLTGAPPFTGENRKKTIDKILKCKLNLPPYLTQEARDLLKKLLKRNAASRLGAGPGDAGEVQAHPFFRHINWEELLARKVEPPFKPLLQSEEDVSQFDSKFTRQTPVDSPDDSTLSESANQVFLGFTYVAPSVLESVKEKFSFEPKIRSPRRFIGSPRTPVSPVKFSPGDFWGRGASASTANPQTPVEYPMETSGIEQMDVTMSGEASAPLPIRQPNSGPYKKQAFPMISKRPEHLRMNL
TBK1 (human), sequence (Q9UHD2 whole entry, looked up): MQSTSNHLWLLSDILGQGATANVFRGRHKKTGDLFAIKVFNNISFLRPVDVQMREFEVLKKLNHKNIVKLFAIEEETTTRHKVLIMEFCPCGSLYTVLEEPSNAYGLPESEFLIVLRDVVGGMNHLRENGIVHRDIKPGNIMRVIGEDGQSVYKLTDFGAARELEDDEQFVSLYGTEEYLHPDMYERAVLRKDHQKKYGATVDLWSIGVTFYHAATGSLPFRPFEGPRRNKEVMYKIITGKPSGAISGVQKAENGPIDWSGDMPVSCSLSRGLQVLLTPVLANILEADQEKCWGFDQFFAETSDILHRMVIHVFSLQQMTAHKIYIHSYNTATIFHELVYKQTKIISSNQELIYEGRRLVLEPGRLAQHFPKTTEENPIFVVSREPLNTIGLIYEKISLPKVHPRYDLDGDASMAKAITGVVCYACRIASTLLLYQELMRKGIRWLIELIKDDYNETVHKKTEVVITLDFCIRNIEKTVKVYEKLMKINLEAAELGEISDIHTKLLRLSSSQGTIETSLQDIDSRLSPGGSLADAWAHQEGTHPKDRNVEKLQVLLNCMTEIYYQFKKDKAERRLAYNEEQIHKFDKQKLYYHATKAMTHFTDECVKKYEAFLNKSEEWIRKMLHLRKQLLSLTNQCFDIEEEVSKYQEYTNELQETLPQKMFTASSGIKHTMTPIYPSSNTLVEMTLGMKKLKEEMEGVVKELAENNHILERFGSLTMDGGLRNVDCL
AURKA (human), sequence (O14965 whole entry, looked up): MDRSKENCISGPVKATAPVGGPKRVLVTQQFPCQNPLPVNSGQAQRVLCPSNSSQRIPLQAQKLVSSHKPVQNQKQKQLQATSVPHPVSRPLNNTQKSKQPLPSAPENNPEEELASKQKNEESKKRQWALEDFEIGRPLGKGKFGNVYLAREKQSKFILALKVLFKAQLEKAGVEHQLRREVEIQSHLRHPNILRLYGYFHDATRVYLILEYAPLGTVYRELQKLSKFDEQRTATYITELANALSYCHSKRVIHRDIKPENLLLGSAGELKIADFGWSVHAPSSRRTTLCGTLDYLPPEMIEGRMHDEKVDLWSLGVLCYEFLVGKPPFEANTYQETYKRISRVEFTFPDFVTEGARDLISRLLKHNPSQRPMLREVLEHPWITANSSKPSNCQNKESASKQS

Compound `Cn1cc(/C=C2\C(=O)Nc3ccc(S(N)(=O)=O)cc32)c2ccccc21` has a residual activity (ADRBK1 (human)) of 100%, a residual activity (AKT2 (human)) of 88.6% and a residual activity (AURKA (human)) of 20%. For the same compound, the residual activity (CAMK1D (human)) was 69.6%, the residual activity (CAMK4 (human)) was 96.4% and the residual activity (CAMKK1 (human)) was 44.9%. It also gave a residual activity (CDK4 CCND3 (human)) of 94%, a residual activity (CSF1R (human)) of 82.5% and a residual activity (DYRK4 (human)) of 73.7%. For the same compound, the residual activity (EPHA3 (human)) was 80.9%, the residual activity (EPHA5 (human)) was 69.3% and the residual activity (EPHB1 (human)) was 68.7%. The residual activity (FRK (human)) was 97.1%, the residual activity (FYN (human)) was 45.7% and the residual activity (GRK5 (human)) was 86.3%. It also gave a residual activity (HCK (human)) of 50%, a residual activity (HIPK1 (human)) of 97.2% and a residual activity (HIPK2 (human)) of 82.6%. It also gave a residual activity (IKBKB (human)) of 101%, a residual activity (MAPK13 (human)) of 105% and a residual activity (MARK4 (human)) of 40.6%. It also gave a residual activity (MATK (human)) of 103%, a residual activity (MELK (human)) of 63% and a residual activity (MYLK (human)) of 95%. For the same compound, the residual activity (NEK11 (human)) was 96.1%, the residual activity (NEK3 (human)) was 66.2% and the residual activity (NUAK2 (human)) was 102%. For the same compound, the residual activity (OXSR1 (human)) was 93.7%, the residual activity (PDGFRB (human)) was 66% and the residual activity (PIM3 (human)) was 91.6%. For the same compound, the residual activity (PKN2 (human)) was 81.8%, the residual activity (PRKCB1 (human)) was 114% and the residual activity (PTK2 (human)) was 94.1%. The residual activity (RPS6KB1 (human)) was 44.3%, the residual activity (SLK (human)) was 28.6% and the residual activity (STK16 (human)) was 78.7%. For the same compound, the residual activity (TBK1 (human)) was 21.6%, the residual activity (TEC (human)) was 157% and the residual activity (TGFBR2 (human)) was 101%. The residual activity (TNK2 (human)) was 72.3% and the residual activity (TTK (human)) was 97.3%.

For `N#CCCc1ccc2c(c1)-c1[nH]c3ccc([N+](=O)[O-])cc3c1CC(=O)N2`, the residual activity (ADRBK1 (human)) was 96.4%, the residual activity (AKT2 (human)) was 100% and the residual activity (AURKA (human)) was 78.7%. It also gave a residual activity (CAMK1D (human)) of 91.8%, a residual activity (CAMK4 (human)) of 98.4% and a residual activity (CAMKK1 (human)) of 86.7%. The residual activity (CDK4 CCND3 (human)) was 25.9%, the residual activity (CSF1R (human)) was 43.4% and the residual activity (DYRK4 (human)) was 100%. It also gave a residual activity (EPHA3 (human)) of 93.9%, a residual activity (EPHA5 (human)) of 88.5% and a residual activity (EPHB1 (human)) of 99.1%. The residual activity (FRK (human)) was 92.7%, the residual activity (FYN (human)) was 52.2% and the residual activity (GRK5 (human)) was 103%. For the same compound, the residual activity (HCK (human)) was 63.8%, the residual activity (HIPK1 (human)) was 97.9% and the residual activity (HIPK2 (human)) was 106%. The residual activity (IKBKB (human)) was 96.3%, the residual activity (MAPK13 (human)) was 98.2% and the residual activity (MARK4 (human)) was 62.5%. It also gave a residual activity (MATK (human)) of 101%, a residual activity (MELK (human)) of 88.6% and a residual activity (MYLK (human)) of 95.2%. For the same compound, the residual activity (NEK11 (human)) was 101%, the residual activity (NEK3 (human)) was 104% and the residual activity (NUAK2 (human)) was 67.6%. It also gave a residual activity (OXSR1 (human)) of 94.6%, a residual activity (PDGFRB (human)) of 83.9% and a residual activity (PIM3 (human)) of 70.9%. For the same compound, the residual activity (PKN2 (human)) was 77.9%, the residual activity (PRKCB1 (human)) was 97.4% and the residual activity (PTK2 (human)) was 82.2%. It also gave a residual activity (RPS6KB1 (human)) of 98%, a residual activity (SLK (human)) of 87.2% and a residual activity (STK16 (human)) of 87%. It also gave a residual activity (TBK1 (human)) of 83.7%, a residual activity (TEC (human)) of 120% and a residual activity (TGFBR2 (human)) of 10.1%. For the same compound, the residual activity (TNK2 (human)) was 75.4% and the residual activity (TTK (human)) was 71.7%.

Work on `N#C/C(=C1/Nc2ccccc2S1)c1ccnc(NCCc2cccnc2)n1` yielded a residual activity (ADRBK1 (human)) of 103%, a residual activity (AKT2 (human)) of 104% and a residual activity (AURKA (human)) of 83.8%. The residual activity (CAMK1D (human)) was 108%, the residual activity (CAMK4 (human)) was 99% and the residual activity (CAMKK1 (human)) was 101%. For the same compound, the residual activity (CDK4 CCND3 (human)) was 85.7%, the residual activity (CSF1R (human)) was 99.2% and the residual activity (DYRK4 (human)) was 65%. For the same compound, the residual activity (EPHA3 (human)) was 75.1%, the residual activity (EPHA5 (human)) was 113% and the residual activity (EPHB1 (human)) was 90.9%. For the same compound, the residual activity (FRK (human)) was 97.5%, the residual activity (FYN (human)) was 93.1% and the residual activity (GRK5 (human)) was 93.8%. For the same compound, the residual activity (HCK (human)) was 92.2%, the residual activity (HIPK1 (human)) was 109% and the residual activity (HIPK2 (human)) was 95.8%. The residual activity (LYN (human)) was 96.2% and 96.4%, the residual activity (MAPK13 (human)) was 100% and the residual activity (MARK4 (human)) was 91.6%. For the same compound, the residual activity (MATK (human)) was 89.8%, the residual activity (MELK (human)) was 91.7% and the residual activity (MYLK (human)) was 97.9%. It also gave a residual activity (NEK11 (human)) of 118%, a residual activity (NEK3 (human)) of 87.9% and a residual activity (NUAK2 (human)) of 72.5%. It also gave a residual activity (OXSR1 (human)) of 99%, a residual activity (PDGFRB (human)) of 103% and a residual activity (PIM3 (human)) of 3.74%. It also gave a residual activity (PKN2 (human)) of 99.3%, a residual activity (PRKCB1 (human)) of 90.8% and a residual activity (PTK2 (human)) of 93%. The residual activity (RPS6KB1 (human)) was 98.2%, the residual activity (SLK (human)) was 87.7% and the residual activity (STK16 (human)) was 79.2%. It also gave a residual activity (TBK1 (human)) of 100%, a residual activity (TEC (human)) of 104% and a residual activity (TGFBR2 (human)) of 102%. For the same compound, the residual activity (TNK2 (human)) was 42.8% and the residual activity (TTK (human)) was 80.9%.
